Where two headings read alike, the source gives them in different places.

Test [1] addresses FLAP (human ALOX5AP expressed in COS-7 cell membranes) (Homo sapiens (Human), UniProt P20292). Kind of test: FLAP Binding Assay (Test A), competition binding with 3H-MK591 as tracer. The settings on record: competition with 3H-MK591 (2 nM), membranes from COS-7 cells expressing human ALOX5AP, 60 min at rt. As to the method:
FLAP Binding Assay (Test A) Compounds were tested in a competition binding assay using ^3H-MK591 as tracer. […] Med. Chem. […] A 100,000×g pellet from COS-7 cells stably transfected with a plasmid expressing human ALOX5AP was the source of FLAP. […] Following filtration, filter plates were dried 12 h at RT (or 50° C. for 1 hour). 50 μL scintillant was then added, the filterplates were sealed and radioactivity was measured in a microbeta counter. Specific binding was defined as total binding minus non-specific binding. Total binding was defined as ^3H-MK591 bound to membranes in the absence of competitor, non-specific binding was defined as ^3H-MK591 in the presence of 0.1 mM MK-591. IC50 values were determined by plotting % inhibition versus log compound concentration and using a one site dose response model.

Test [2] deals with LTB4 production in fresh human whole blood. Kind of test: FLAP Whole Blood Assay (Test B), inhibition of LTB4 production. The settings on record: then calcium ionophore A23187, LTB4 by EIA. The test is classed as cell-based. As for the experimental part: FLAP Whole Blood Assay (Test B)
Compounds were tested for the inhibition of LTB4 production in fresh human whole blood obtained by venapuncture using heparin to prevent clotting. 1.5 μL compounds or DMSO carrier were dispensed into the wells of a 96-well deep-well plate in 3-fold dilution series. 500 μL hepamised whole blood was then added followed by incubation at 37° C. for 30 min (method A) or 4 h (method B). 100 μL blood was subsequently transferred in triplicate to pre-dispensed 0.5 μL 2 mM calcium ionophore (calcimycin; A23187) in a second 96-well plate. Following incubation at 37° C. for 20 min, the assays were stopped by adding 10 μL of stop solution (100 mM EGTA, pH 7.4) and the plate was transferred to ice. The plate was centrifuged at 3000 rpm at 4° C. for 10 min and […] was transferred to a fresh 96 well plate containing 90 μL pre-dispensed EIA assay buffer (0.1 M phosphate buffer+0.1% BSA). LTB4 was then measured using reagents from a commercial EIA (Cayman Chemicals). LTB4 production was defined as the LTB4 level in the presence of a given concentration of test compound minus the LTB4 level in the presence of 50 nM 5-[[4-[(2S,4R)-4-hydroxy-2-methyl-tetrahydropyran-4-yl]-2-thienyl]sulfanyl]-1-methyl-indolin-2-one. (Preparation of 5-[[4-[(2S,4R)-4-hydroxy-2-methyl-tetrahydropyran-4-yl]-2-thienyl]sulfanyl]-1-methyl-indolin-2-one was described in Org. Process Res. Dev., 2005, 9, 555-569 or EP623614 B1). Inhibition of LTB4 production was defined as the LTB4 level in the presence of a given concentration of test compound expressed as a % of the LTB4 level in the presence of DMSO. IC50 values were determined by plotting % inhibition versus log compound concentration and using a one site dose response model.

Where [3] appears, read: method B: compound incubated with human whole blood at 37° C. for 4 h, read-out: IC50 nM (method B).
Where [4] appears, read: 0.5 h, method A: compound incubated with human whole blood at 37° C. for 30 min, read-out: IC50 nM (method A).

FLAP (human ALOX5AP expressed in COS-7 cell membranes), sequence (P20292 whole entry): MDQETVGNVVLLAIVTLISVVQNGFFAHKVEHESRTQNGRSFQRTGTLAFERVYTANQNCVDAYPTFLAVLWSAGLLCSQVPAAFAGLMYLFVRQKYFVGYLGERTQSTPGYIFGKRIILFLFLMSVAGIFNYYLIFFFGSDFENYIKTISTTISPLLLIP

Turning to `Cn1ncc(NC(=O)C2CCCCC2C(=O)c2ccc(-c3ccn[nH]3)cc2F)c1C(N)=O` (single isomer, unassigned) [Example 34, 4-[({(1R,2R or 1S,2S)-2-[2-Fluoro-4-(1H-pyrazol-5-yl)benzoyl]-cyclohexyl}carbonyl)amino]-1-methyl-1H-pyrazole-5-carboxamide], the 50% inhibitory concentration (IC50) in test [1] and in test [2] (setting [3]) was 41 nM in each case.
For `Cn1cc(NC(=O)C2CCCCC2C(=O)c2ccc(-c3ccn[nH]3)cc2F)c(C(N)=O)n1` (single isomer, unassigned) [Example 35, 4-[({(1R,2R or 1S,2S)-2-[2-Fluoro-4-(1H-pyrazol-5-yl)benzoyl]-cyclohexyl}carbonyl)amino]-1-methyl-1H-pyrazole-3-carboxamide], the values for the IC50 in test [1] and in test [2] (setting [3]) were 83 nM and 79 nM, respectively.
On to `Cc1cc(-c2ccc(C(=O)C3CCCCC3C(=O)Nc3cnn(C)c3C(N)=O)c(F)c2)[nH]n1` (single isomer, unassigned) [Example 37, 4-[({(1R,2R or 1S,2S)-2-[2-Fluoro-4-(3-methyl-1H-pyrazol-5-yl)benzoyl]-cyclohexyl}carbonyl)amino]-1-methyl-1H-pyrazole-5-carboxamide], for which the concentration for half-maximal inhibition (IC50) in test [1] amounted to 27 nM; in test [2] (setting [3]), 40 nM.
The corresponding values for `Cc1cc(-c2ccc(C(=O)C3CCCCC3C(=O)Nc3cn[nH]c3C(N)=O)c(F)c2)[nH]n1` (single isomer, unassigned) [Example 38, 4-[({(1R,2R or 1S,2S)-2-[2-Fluoro-4-(3-methyl-1H-pyrazol-5-yl)benzoyl]cyclohexyl}carbonyl)amino]-1H-pyrazole-5-carboxamide] are 20 nM and 69 nM.
`Cc1cc(-c2ccc(C(=O)C3CCCCC3C(=O)Nc3cnn4c3C(=O)NCC4)c(F)c2)[nH]n1` (single isomer, unassigned) [Example 39, (1R,2R or 1S,2S)-2-[2-Fluoro-4-(3-methyl-1H-pyrazol-5-yl)benzoyl]-N-(4-oxo-4,5,6,7-tetrahydropyrazolo[1,5-a]pyrazin-3-yl)cyclohexanecarboxamide]: the half-inhibitory concentration (IC50) in test [1] was determined as 9 nM; in test [2] (setting [3]) it was 34 nM.
With `Cc1cc(-c2ccc(C(=O)C3CCCCC3C(=O)Nc3nonc3C(N)=O)c(F)c2)[nH]n1` (single isomer, unassigned) [Example 40, 4-[({(1R,2R or 1S,2S)-2-[2-Fluoro-4-(3-methyl-1H-pyrazol-5-yl)benzoyl]cyclohexyl}carbonyl)amino]-1,2,5-oxadiazole-3-carboxamide], the figures for the IC50 in test [1] and in test [2] (setting [4]) were 70 nM and 208 nM, respectively.
Regarding `Cc1onc(NC(=O)C2CCCCC2C(=O)c2ccc(-c3ccn[nH]3)cc2F)c1C(N)=O` (single isomer, unassigned) [Example 41, 3-[({(1R,2R or 1S,2S)-2-[2-Fluoro-4-(1H-pyrazol-5-yl)benzoyl]-cyclohexyl}carbonyl)amino]-5-methyl-1,2-oxazole-4-carboxamide], the 50% inhibitory concentration (IC50) in test [1] was found to be 160 nM; in test [2] (setting [3]), 272 nM.
As to `Cn1ncc(NC(=O)[C@@H]2CCCC[C@H]2C(=O)c2ccc(-c3cc[nH]n3)cc2)c1C(N)=O` [Example 2, 1-Methyl-4-[({(1R,2R)-2-[4-(1H-pyrazol-3-yl)benzoyl]cyclohexyl}-carbonyl)amino]-1H-pyrazole-5-carboxamide], the IC50 in test [1] is 34 nM; in test [2] (setting [3]) it was 60 nM.
As for `Cc1cc(-c2ccc(C(=O)[C@@H]3CCCC[C@H]3C(=O)Nc3cn[nH]c3)cc2)[nH]n1` [Example 6, (1R,2R)-2-[4-(3-Methyl-1H-pyrazol-5-yl)benzoyl]-N-(1H-pyrazol-4-yl)cyclohexanecarboxamide], the results for the IC50 in test [1] and in test [2] (setting [3]) were 57 nM and 380 nM, respectively.
Regarding `Cc1cc(-c2ccc(C(=O)[C@@H]3CCCC[C@H]3C(=O)Nc3cnn4c3C(=O)NCC4)cc2)[nH]n1` [Example 7, (1R,2R)-2-[4-(3-Methyl-1H-pyrazol-5-yl)benzoyl]-N-(4-oxo-4,5,6,7-tetrahydropyrazolo[1,5-a]pyrazin-3-yl)cyclohexanecarboxamide], the half-maximal inhibitory concentration (IC50) in test [1] was determined as 6.3 nM; in test [2] (setting [3]), 40 nM.
Take `Cn1ncc(NC(=O)[C@@H]2CCCC[C@H]2C(=O)c2ccc(-c3ccn[nH]3)cc2)c1S(C)(=O)=O` [Example 8, (1R,2R)—N-[1-Methyl-5-(methylsulfonyl)-1H-pyrazol-4-yl]-2-[4-(1H-pyrazol-5-yl)benzoyl]cyclohexanecarboxamide]: the IC50 in test [1] was found to be 45 nM; in test [2] (setting [3]), 35 nM.
On to `Cc1cc(-c2ccc(C(=O)[C@@H]3CCCC[C@H]3C(=O)Nc3cn(C)nc3S(N)(=O)=O)cc2)[nH]n1` [Example 10, (1R,2R)-2-[4-(3-Methyl-1H-pyrazol-5-yl)benzoyl]-N-(1-methyl-3-sulfamoyl-1H-pyrazol-4-yl)cyclohexanecarboxamide], for which the half-maximal inhibitory concentration (IC50) turned out to be 270 nM in test [1] and 340 nM in test [2] (setting [3]).
Take `Cc1cc(-c2ccc(C(=O)[C@@H]3CCCC[C@H]3C(=O)Nc3cnn4c3OCC4)cc2)[nH]n1` [Example 11, (1R,2R)—N-(2,3-Dihydropyrazolo[5,1-b][1,3]oxazol-7-yl)-2-[4-(3-methyl-1H-pyrazol-5-yl)benzoyl]cyclohexanecarboxamide]: the IC50 was determined as 82 nM in test [1] and 140 nM in test [2] (setting [3]).
With `Cc1cc(-c2ccc(C(=O)[C@@H]3CCCC[C@H]3C(=O)Nc3cn[nH]c3C(F)F)cc2)n[nH]1` [Example 15, (1R,2R)—N-[5-(Difluoromethyl)-1H-pyrazol-4-yl]-2-[4-(5-methyl-1H-pyrazol-3-yl)benzoyl]cyclohexanecarboxamide], the concentration for half-maximal inhibition (IC50) in test [1] was determined as 8.6 nM; in test [2] (setting [3]), 28 nM.
For `Cc1cc(-c2ccc(C(=O)[C@@H]3CCCC[C@H]3C(=O)Nc3cnn4c3C(=O)N(C)CC4)cc2)n[nH]1` [Example 16, (1R,2R)—N-(5-Methyl-4-oxo-4,5,6,7-tetrahydropyrazolo[1,5-a]pyrazin-3-yl)-2-[4-(5-methyl-1H-pyrazol-3-yl)benzoyl]cyclohexanecarboxamide], in that order: 22 nM and 41 nM.
As for `CN1CCn2ncc(NC(=O)[C@@H]3CCCC[C@H]3C(=O)c3ccc(-c4cc[nH]n4)cc3)c2C1=O` [Example 17, (1R,2R)—N-(5-Methyl-4-oxo-4,5,6,7-tetrahydropyrazolo[1,5-a]pyrazin-3-yl)-2-[4-(1H-pyrazol-3-yl)benzoyl]cyclohexanecarboxamide], the figures for the half-inhibitory concentration (IC50) in test [1] and in test [2] (setting [3]) were 20 nM and 18 nM, respectively.
`CCn1ncc(NC(=O)[C@@H]2CCCC[C@H]2C(=O)c2ccc(-c3cc(C)n[nH]3)cc2)c1C(N)=O` [Example 19, 1-Ethyl-4-[({(1R,2R)-2-[4-(3-methyl-1H-pyrazol-5-yl)benzoyl]-cyclohexyl}carbonyl)amino]-1H-pyrazole-5-carboxamide]: the IC50 in test [1] was 29 nM; in test [2] (setting [3]), 80 nM.
In the case of `CNC(=O)c1c(NC(=O)[C@@H]2CCCC[C@H]2C(=O)c2ccc(-c3cc(C)[nH]n3)cc2)cnn1C` [Example 21, N,1-Dimethyl-4-[({(1R,2R)-2-[4-(5-methyl-1H-pyrazol-3-yl)benzoyl]-cyclohexyl}carbonyl)amino]-1H-pyrazole-5-carboxamide], the IC50 was found to be 230 nM in test [1] and 360 nM in test [2] (setting [4]).
Consider `Cc1cc(-c2ccc(C(=O)[C@@H]3CCCC[C@H]3C(=O)Nc3c(C(N)=O)n[nH]c3C)cc2)[nH]n1` [Example 22, 5-Methyl-4-[({(1R,2R)-2-[4-(3-methyl-1H-pyrazol-5-yl)benzoyl]-cyclohexyl}carbonyl)amino]-1H-pyrazole-3-carboxamide], for which the concentration for half-maximal inhibition (IC50) is 24 nM in test [1] and 740 nM in test [2] (setting [3]).
